Holding throughout (format): cell-based
For assay [1], the system named is Phospho-Rb Ser807/811 in OVCAR3 cells. The assay is described as follows: OVCAR3 Phospho-Rb Ser807/811 HTRF assay. To be noted: Homo sapiens, OVCAR-3, 1 h, OVCAR3 cells, Phospho-Rb Ser807/811 HTRF, 1 hour incubation; read-out: pRb-OVCAR3 IC50. On the procedure:
Cells were trypsinized and resuspended in 1 mM hydroxyurea (Sigma; H8627), 90% RPMI and 10% fetal bovine serum. […] Dose response curve normalized to DMSO control was plotted using four-parameter logistic model for IC50 calculation.

The target of assay [2] is T1, CDK2-NanoLuc fusion with CCNE1 in 293T or 293 cells (Homo sapiens, UniProt P24941).
T1 construct: host or cells: 293T (ATCC CRL-3216) or 293 (ATCC CRL-1573)
In words: NanoBRET Target Engagement (TE) Intracellular Kinase Assay, CDK2/CCNE1. To be noted: NanoBRET TE intracellular kinase assay, 2-hour incubation, read-out: NanoBRET-CDK2/E1 IC50.

In assay [3] the target is T2, CDK4-NanoLuc fusion with CCND1 in 293T or 293 cells (Homo sapiens, UniProt P11802).
T2 construct: host or cells: 293T (ATCC CRL-3216) or 293 (ATCC CRL-1573)
The assay is described as follows: NanoBRET Target Engagement (TE) Intracellular Kinase Assay, CDK4/CCND1. To be noted: NanoBRET TE intracellular kinase assay, 2-hour incubation, read-out: NanoBRET-CDK4/D1 IC50.

T2 sequence (P11802 whole entry, the tested form may be a part): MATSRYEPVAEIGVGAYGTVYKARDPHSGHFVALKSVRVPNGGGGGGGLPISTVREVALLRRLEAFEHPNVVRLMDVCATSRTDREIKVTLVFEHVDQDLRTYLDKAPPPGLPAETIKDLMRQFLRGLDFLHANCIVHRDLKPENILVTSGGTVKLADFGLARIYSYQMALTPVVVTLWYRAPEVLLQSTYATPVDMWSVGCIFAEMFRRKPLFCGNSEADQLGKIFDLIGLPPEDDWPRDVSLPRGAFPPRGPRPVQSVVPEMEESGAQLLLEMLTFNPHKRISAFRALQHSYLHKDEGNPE
T2 sequence (P24385 whole entry partner, the tested form may be a part): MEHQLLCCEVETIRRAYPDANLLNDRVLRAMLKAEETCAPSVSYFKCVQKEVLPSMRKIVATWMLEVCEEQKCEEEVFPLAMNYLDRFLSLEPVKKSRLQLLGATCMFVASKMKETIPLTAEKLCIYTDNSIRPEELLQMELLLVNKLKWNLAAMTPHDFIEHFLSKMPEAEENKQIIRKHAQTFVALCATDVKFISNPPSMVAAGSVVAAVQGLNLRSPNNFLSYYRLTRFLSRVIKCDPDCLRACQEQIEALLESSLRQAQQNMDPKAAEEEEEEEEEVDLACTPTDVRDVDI

As for `COc1cc(O)c(C=O)c(OCC(=O)Nc2cc([C@H]3CC[C@@H](OC(=O)NCCN(C)C)C3)[nH]n2)c1` [Compound 188], the values for the IC50 in assay [1], in assay [2] and in assay [3] were 0.368 µM, 0.337 µM and over 10 µM, respectively.
For `COc1cc(O)c(C=O)c(OCC(=O)Nc2cc([C@H]3CC[C@@H](OC(=O)N4CC5CC(C4)N5C)C3)[nH]n2)c1` [Compound 189], in that order: 0.198 µM, 0.159 µM and over 10 µM.
On to `COc1cc(O)c(C=O)c(OCC(=O)Nc2cc([C@H]3CC[C@@H](OC(=O)N4C5CC4CN(C)C5)C3)[nH]n2)c1` [Compound 190], for which the IC50 in assay [1] was found to be 0.035 µM; in assay [2] it was 0.00802 µM; in assay [3], 4.16 µM.
For `COc1cc(O)c(C=O)c(OCC(=O)Nc2cc([C@H]3CC[C@@H](OC(=O)N4CC5(CCN5C)C4)C3)[nH]n2)c1` [Compound 191], in that order: 0.127 µM, 0.025 µM and over 10 µM.
For `O=Cc1c(O)cc(F)cc1OCC(=O)Nc1cc([C@H]2CC[C@@H](OC(=O)N3C4COCC3C4)C2)[nH]n1` [Compound 192], in that order: 0.088 µM, 0.024 µM and 5.91 µM.
As to `COc1cc(O)c(C=O)c(O[C@H](C)C(=O)Nc2cc([C@H]3C[C@@H](OC(=O)N4C5COCC4C5)C3)[nH]n2)c1` [Compound 193], the IC50 in assay [1] was 0.0847 µM; in assay [2], 0.0116 µM; in assay [3], over 10 µM.
For `COc1cc(O)c(C=O)c(OCC(=O)Nc2cc([C@H]3CC[C@@H](OC(=O)N4CCN(C)CC4)C3)[nH]n2)c1` [Compound 195], in that order: 0.0378 µM, 0.00937 µM and 5 µM.
For `O=Cc1c(O)cccc1OCC(=O)Nc1cc([C@H]2CC[C@@H](OC(=O)N3C4COCC3C4)C2)[nH]n1` [Compound 196] the same measures were 0.102 µM, 0.0062 µM and 7.36 µM.
For `COc1cc(O)c(C=O)c(OCC(=O)Nc2cc([C@H]3CC[C@@H](OC(=O)N4CCCCC4)C3)[nH]n2)c1` [Compound 234, (1R,3S)-3-(3-(2-(2-formyl-3-hydroxy-5-methoxyphenoxy)acetamido)-1H-pyrazol-5-yl)cyclopentyl piperidine-1-carboxylate], in that order: 0.0142 µM, 0.00118 µM and 2.84 µM.
As for `CC(C)NC(=O)O[C@@H]1CC[C@H](c2cc(Nc3nccc4c(C=O)c(O)ccc34)n[nH]2)C1` [Compound 260, (1R,3S)-3-(3-((5-formyl-6-hydroxyisoquinolin-1-yl)amino)-1H-pyrazol-5-yl)cyclopentyl isopropylcarbamate], the IC50 is 0.17 µM in assay [1], 0.015 µM in assay [2] and over 10 µM in assay [3].
Turning to `CC1(NC(=O)O[C@@H]2CC[C@H](c3cc(Nc4nccc5c(C=O)c(O)ccc45)n[nH]3)C2)CC1` [Compound 261, (1R,3S)-3-(3-((5-formyl-6-hydroxyisoquinolin-1-yl)amino)-1H-pyrazol-5-yl)cyclopentyl (1-methylcyclopropyl)carbamate], the IC50 is 0.051 µM in assay [1], 0.0047 µM in assay [2] and 4.1 µM in assay [3].
For `COc1cc(O)c(C=O)c(OCC(=O)Nc2cc([C@H]3CC[C@@H](OC(=O)N4C5CCC(C5)N4C)C3)[nH]n2)c1` (stereo partly drawn) [Compound 272, (1R,3S)-3-(3-(2-(2-formyl-3-hydroxy-5-methoxyphenoxy)acetamido)-1H-pyrazol-5-yl)cyclopentyl 3-methyl-2,3-diazabicyclo[2.2.1]heptane-2-carboxylate], in that order: 0.0393 µM, 0.0022 µM and over 10 µM.
Regarding `COc1cc(O)c(C=O)c(OCC(=O)Nc2cc([C@H]3CC[C@@H](OC(=O)N4NC5CCC4C5)C3)[nH]n2)c1` (stereo partly drawn) [Compound 273, (1R,3S)-3-(3-(2-(2-formyl-3-hydroxy-5-methoxyphenoxy)acetamido)-1H-pyrazol-5-yl)cyclopentyl 2,3-diazabicyclo[2.2.1]heptane-2-carboxylate], the IC50 in assay [1] was 0.0295 µM; in assay [2], 0.00238 µM; in assay [3] it was 5.82 µM.
On to `CCN(C)NC(=O)O[C@@H]1CC[C@H](c2cc(NC(=O)COc3cc(OC)cc(O)c3C=O)n[nH]2)C1` [Compound 274, (1R,3S)-3-(3-(2-(2-formyl-3-hydroxy-5-methoxyphenoxy)acetamido)-1H-pyrazol-5-yl)cyclopentyl 2-ethyl-2-methylhydrazine-1-carboxylate], for which the IC50 in assay [1] is 0.0547 µM; in assay [2] it was 0.00317 µM; in assay [3], over 10 µM.
For the compound `CCN(NC)C(=O)O[C@@H]1CC[C@H](c2cc(NC(=O)COc3cc(OC)cc(O)c3C=O)n[nH]2)C1` [Compound 275, (1R,3S)-3-(3-(2-(2-formyl-3-hydroxy-5-methoxyphenoxy)acetamido)-1H-pyrazol-5-yl)cyclopentyl 1-ethyl-2-methylhydrazine-1-carboxylate], the values for the IC50 in assay [1], in assay [2] and in assay [3] were 0.0357 µM, 0.00311 µM and 5.3 µM, respectively.
For `CCNN(C)C(=O)O[C@@H]1CC[C@H](c2cc(NC(=O)COc3cc(OC)cc(O)c3C=O)n[nH]2)C1` [Compound 276, (1R,3S)-3-(3-(2-(2-formyl-3-hydroxy-5-methoxyphenoxy)acetamido)-1H-pyrazol-5-yl)cyclopentyl 2-ethyl-1-methylhydrazine-1-carboxylate], in that order: 0.0316 µM, 0.00509 µM and over 10 µM.
For `CCN(CC)N(C)C(=O)O[C@@H]1CC[C@H](c2cc(NC(=O)COc3cc(OC)cc(O)c3C=O)n[nH]2)C1` [Compound 277, (1R,3S)-3-(3-(2-(2-formyl-3-hydroxy-5-methoxyphenoxy)acetamido)-1H-pyrazol-5-yl)cyclopentyl 2,2-diethyl-1-methylhydrazine-1-carboxylate], in that order: 0.0256 µM, 0.00148 µM and 5.09 µM.
For `COc1cc(O)c(C=O)c(OCC(=O)Nc2cc([C@H]3CC[C@@H](OC(=O)N4CCCN4C)C3)[nH]n2)c1` [Compound 278, (1R,3S)-3-(3-(2-(2-formyl-3-hydroxy-5-methoxyphenoxy)acetamido)-1H-pyrazol-5-yl)cyclopentyl 2-methylpyrazolidine-1-carboxylate] the same measures were 0.0959 µM, 0.0041 µM and over 10 µM.
`CNN(C)C(=O)O[C@@H]1CC[C@H](c2cc(NC(=O)COc3cc(OC)cc(O)c3C=O)n[nH]2)C1` [Compound 279, (1R,3S)-3-(3-(2-(2-formyl-3-hydroxy-5-methoxyphenoxy)acetamido)-1H-pyrazol-5-yl)cyclopentyl 1,2-dimethylhydrazine-1-carboxylate]: the IC50 was 0.0639 µM in assay [1], 0.00432 µM in assay [2] and over 10 µM in assay [3].
